We go through five compounds from PMC9822072, “Synthesis and Structure–Activity Relationship of 2,6-Disubstituted Thiosemicarbazone Derivatives of Pyridine as Potential Antituberculosis Agents” (Materials, 2023).

In data set [1] the test system is Candida parapsilosis ATCC 22019. In words: Antifungal microdilution broth method. In kind it is cell-based. Particulars: Lodderomyces parapsilosis, ATCC22019; Mueller–Hinton broth with 2% glucose; read-out: MIC C. parapsilosis ATCC 22019. On the procedure: (§1) The antibacterial and antifungal activities of compounds 4–9 were screened by the microdilution broth method using Mueller–Hinton broth for the growth of bacteria and Mueller–Hinton broth with 2% glucose for the growth of fungi. The antimicrobial assays were carried out following a previous study. The MICs of the aforementioned derivatives were evaluated for the panel of reference microorganisms from the ATCC (American Type Culture Collection), including Gram-positive bacteria (Staphylococcus aureus ATCC 25923, Staphylococcus epidermidis ATCC 12228, Micrococcus luteus ATCC 10240, Bacillus subtilis ATCC 6633, and Bacillus cereus ATCC 10876), Gram-negative bacteria (Escherichia coli ATCC 25922, Proteus mirabilis ATCC 12453, Klebsiella pneumoniae ATCC 13883, and Pseudomonas aeruginosa ATCC 9027), and fungi (Candida albicans ATCC 102231 and Candida parapsilosis ATCC 22019) (LGC Standards, Teddington, Middlesex, UK). Vancomycin (VAN), ciprofloxacin (CIP), and fluconazole (FCZ) were used as standard drugs for comparison. Each experiment was performed in triplicate.
On the technique in general: Broth dilution looks for growth in wells or tubes with falling amounts of substance.

Data set [2] concerns Candida albicans ATCC 102231. In words: Antifungal microdilution broth method. Particulars: ATCC102231, Mueller–Hinton broth with 2% glucose, read-out: MIC C. albicans ATCC 102231. It counts as cell-based. On the procedure: as §1
Data set [3] relates to M. tuberculosis H37Rv (standard strain). Briefly: Tuberculostatic activity, twofold serial microdilution with Alamar Blue. In kind it is cell-based, Mycobacterium tuberculosis. The following applies: 21 days at 37 °C; for MIC: Mycobacterium tuberculosis, H37RV, 504 h.
In data set [4] the test system is Bacillus cereus ATCC 10876. In words: Antibacterial microdilution broth method. It counts as cell-based. The following applies: ATCC10876, Mueller–Hinton broth, read-out: MIC B. cereus ATCC 10876. On the procedure: as §1
The subject of data set [5] is Staphylococcus aureus ATCC 25923. In words: Antibacterial microdilution broth method. In kind it is cell-based. The following applies: Mueller–Hinton broth; for MIC: Staphylococcus aureus, ATCC25923, read-out: MIC S. aureus ATCC 25923. On the procedure:
as §1

Data set [6] deals with Micrococcus luteus ATCC 10240. In words: Antibacterial microdilution broth method. In kind it is cell-based. Particulars: ATCC10240, Mueller–Hinton broth, read-out: MIC M. luteus ATCC 10240. On the procedure:
as §1

Data set [7] has as its system Proteus mirabilis ATCC 12453. Briefly: Antibacterial microdilution broth method. In kind it is cell-based. Particulars: ATCC12453, Mueller–Hinton broth, read-out: MIC P. mirabilis ATCC 12453. On the procedure:
as §1

Data set [8] relates to Klebsiella pneumoniae ATCC 13883. Briefly: Antibacterial microdilution broth method. It counts as cell-based. Particulars: ATCC13883, Mueller–Hinton broth, read-out: MIC K. pneumoniae ATCC 13883. On the procedure: as §1
Data set [9] deals with Staphylococcus epidermidis ATCC 12228. Briefly: Antibacterial microdilution broth method. In kind it is cell-based. Particulars: Mueller–Hinton broth; for MIC: Staphylococcus epidermidis, ATCC12228, read-out: MIC S. epidermidis ATCC 12228. On the procedure: as §1
The subject of data set [10] is Bacillus subtilis ATCC 6633. Briefly: Antibacterial microdilution broth method. Particulars: ATCC6633, Mueller–Hinton broth, read-out: MIC B. subtilis ATCC 6633. In kind it is cell-based. On the procedure: as §1
The test system of data set [11] is Pseudomonas aeruginosa ATCC 9027. Briefly: Antibacterial microdilution broth method. It counts as cell-based. The following applies: ATCC9027, Mueller–Hinton broth, read-out: MIC P. aeruginosa ATCC 9027. On the procedure:
as §1

Data set [12] has as its system Escherichia coli ATCC 25922. In words: Antibacterial microdilution broth method. It counts as cell-based. The following applies: ATCC25922, Mueller–Hinton broth, read-out: MIC E. coli ATCC 25922. On the procedure: as §1
Data set [13] deals with HaCaT cells. Briefly: Cytotoxic activity, MTT method. In kind it is cell-based. Particulars: Homo sapiens, 72 h, 3 days of incubation.
Data set [14] concerns HaCaT cells. Briefly: Cytotoxic activity, sulforhodamine B method. The following applies: for IC50: Homo sapiens, 72 h, read-out: IC50-HaCaT SULF; for cytotoxicity against noncancer cells (in words): MTT and sulforhodamine B methods together.
Data set [15] deals with Gram-positive bacteria. In words: Antibacterial microdilution broth method, summary in text. It counts as cell-based. The following applies: read-out: MIC Gram-positive bacteria. On the procedure:
as §1

Converted amounts (≈) assume the structure as drawn. Where only a bound is given, the exact number is not on record here.

Broadly, the MIC is the lowest concentration found to suppress growth. For orientation: melting point means the temperature of the solid-liquid transition. Broadly, the IC50 is the concentration that gives 50% inhibition. On to `NC(=NNC(=S)N1CCOCC1)c1cccc(N2CCCC2)n1` [Compound 4, N’-(Morpholine-4-Carbonothioyl)-6-(Pyrrolidin-1-Yl)Picolinohydrazonamide], for which the melting point lay within 180 to 182 °C. The minimal inhibitory concentration (MIC) in data set [1] was greater than 1000 mg/L. Besides, the MIC in [2] turned out to be 250 mg/L (≈ 747 µM). 16 mg/L (≈ 47.8 µM) was the least that counted as inhibitory in data set [3] (MIC). Moreover, in [4], the minimum inhibitory concentration (MIC) amounted to 7.8 mg/L (≈ 23.3 µM). Besides, the minimal inhibitory concentration (MIC) in data set [5] was 3.9 mg/L (≈ 11.7 µM). Moreover, the minimum inhibitory concentration (MIC) in [6] was determined as 7.8 mg/L (≈ 23.3 µM). Also, in [7], the MIC is greater than 1000 mg/L. In [8], the MIC is greater than 1000 mg/L. The minimum inhibitory concentration (MIC) in data set [9] turned out to be 1.95 mg/L (≈ 5.83 µM). Further, the MIC in data set [10] is 7.8 mg/L (≈ 23.3 µM). For the same compound, the MIC in data set [11] is greater than 1000 mg/L. In data set [12], the MIC is greater than 1000 mg/L. Also, in [13], the half-maximal inhibitory concentration (IC50) is greater than 50 mg/L. Also, in [14], the half-inhibitory concentration (IC50) was greater than 50 mg/L and the “cytotoxicity against noncancer cells (in words)” value (“cytotoxicity” for short) is on record as “no cytotoxicity”.

In the case of `NC(=NNC(=S)N1CCOCC1)c1cccc(N2CCCCC2)n1` [Compound 6, N’-(Morpholine-4-Carbonothioyl)-6-(Piperidin-1-Yl)Picolinohydrazonamide], the melting point fell in the range of 177 to 178 °C. Moreover, the minimal inhibitory concentration (MIC) in data set [1] is 1000 mg/L (≈ 2870 µM). Also, the minimum inhibitory concentration (MIC) in data set [2] was found to be 1000 mg/L (≈ 2870 µM). In data set [3], this compound showed an MIC of 8 mg/L (≈ 23 µM). In addition, in data set [4], the MIC amounted to 7.8 mg/L (≈ 22.4 µM). In addition, the minimal inhibitory concentration (MIC) in data set [5] was determined as 1.95 mg/L (≈ 5.6 µM). Moreover, in data set [6], the MIC was found to be 0.98 mg/L (≈ 2.81 µM). Also, the minimal inhibitory concentration (MIC) in data set [7] is greater than 1000 mg/L. Moreover, the minimum inhibitory concentration (MIC) in data set [8] was greater than 1000 mg/L. In addition, in data set [9], the MIC worked out at 0.98 mg/L (≈ 2.81 µM). Besides, the MIC in [10] stood at 7.8 mg/L (≈ 22.4 µM). In addition, the MIC in data set [11] was greater than 1000 mg/L. Further, the minimal inhibitory concentration (MIC) in [12] is greater than 1000 mg/L. The concentration for half-maximal inhibition (IC50) in data set [13] turned out to be 9.49 mg/L (≈ 27.2 µM). Also, in data set [14], the IC50 is greater than 50 mg/L and the “cytotoxicity” value is recorded as “inhibited cell metabolic activity while maintaining cell viability”.

On to `NC(=NNC(=S)N1CCCC1)c1cccc(N2CCCCC2)n1` [Compound 7, 6-(Piperidin-1-Yl)-N’-(Pyrrolidine-1-Carbonothioyl)Picolinohydrazonamide], for which the melting point fell in the range of 166 to 168 °C. Further, the minimum inhibitory concentration (MIC) in data set [1] amounted to 7.8 mg/L (≈ 23.5 µM). The MIC in [2] came to 15.6 mg/L (≈ 46.9 µM). In addition, in data set [3], the “MIC H37Rv” value was found to be 2 mg/L (≈ 6.02 µM) and the MIC was 2 mg/L (≈ 6.02 µM). The MIC in data set [4] stood at 1.95 mg/L (≈ 5.87 µM). In addition, in data set [5], the “MIC S. aureus ATCC 25923” value worked out at 0.49 mg/L (≈ 1.47 µM) and the minimal inhibitory concentration (MIC) came out at 0.49 mg/L (≈ 1.47 µM). Also, in data set [6], the minimum inhibitory concentration (MIC) was found to be 1.95 mg/L (≈ 5.87 µM). Moreover, the MIC in data set [7] was greater than 1000 mg/L. The minimal inhibitory concentration (MIC) in data set [8] is greater than 1000 mg/L. For the same compound, in data set [9], the “MIC S. epidermidis ATCC 12228” value stood at 0.49 mg/L (≈ 1.47 µM) and the minimum inhibitory concentration (MIC) amounted to 0.49 mg/L (≈ 1.47 µM). For the same compound, in [10], the MIC is 1.95 mg/L (≈ 5.87 µM). The minimal inhibitory concentration (MIC) in [11] is greater than 1000 mg/L. The MIC in data set [12] was greater than 1000 mg/L. Besides, the IC50 in data set [13] was greater than 50 mg/L. Besides, in [14], the half-maximal inhibitory concentration (IC50) is greater than 50 mg/L and the “cytotoxicity” value is given as “no cytotoxicity”. In addition, in [15], the MIC was 0.49 mg/L (≈ 1.47 µM).

In the case of `NNC(=O)c1ccncc1` [INH, isoniazid, reference compound], inhibition of growth in data set [3] (MIC) required 0.125 mg/L (≈ 0.911 µM).

`NC(=NNC(=S)N1CCCC1)c1cccc(Oc2ccccc2)n1` [Compound 9, 6-Phenoxy-N’-(Pyrrolidine-1-Carbonothioyl)Picolinohydrazonamide]: the melting point lay in the range of 170 to 173 °C. For the same compound, the MIC in data set [1] was 1000 mg/L (≈ 2930 µM). In [2], the MIC was 1000 mg/L (≈ 2930 µM). This compound returned a minimal inhibitory concentration (MIC) in data set [3] of 8 mg/L (≈ 23.4 µM). In data set [4], the MIC was found to be 3.9 mg/L (≈ 11.4 µM). Also, the minimal inhibitory concentration (MIC) in data set [5] amounted to 0.98 mg/L (≈ 2.87 µM). In addition, the minimum inhibitory concentration (MIC) in [6] was determined as 0.49 mg/L (≈ 1.44 µM). Moreover, the MIC in [7] was greater than 1000 mg/L. For the same compound, in data set [8], the minimum inhibitory concentration (MIC) is greater than 1000 mg/L. Moreover, in data set [9], the MIC was 0.49 mg/L (≈ 1.44 µM). Also, in data set [10], the MIC came to 0.49 mg/L (≈ 1.44 µM). The MIC in data set [11] came out at 1000 mg/L (≈ 2930 µM). Also, in [12], the MIC was 1000 mg/L (≈ 2930 µM). In [13], this compound registered a half-maximal inhibitory concentration (IC50) of 0.06 mg/L (≈ 0.176 µM). Also, in data set [14], the half-inhibitory concentration (IC50) was 1.31 mg/L (≈ 3.84 µM) and the “cytotoxicity” value is reported as “showed the same while losing cell viability”.
